# Assay results reported in patent US8288552B2, “Dihydropyridone amidesas P2X7 modulators” (Roche Palo Alto LLC, priority 2008, dated 2012).
# Biological target: T1, P2X7 (UniProt Q99572)
# T1 sequence (Q99572 1-595): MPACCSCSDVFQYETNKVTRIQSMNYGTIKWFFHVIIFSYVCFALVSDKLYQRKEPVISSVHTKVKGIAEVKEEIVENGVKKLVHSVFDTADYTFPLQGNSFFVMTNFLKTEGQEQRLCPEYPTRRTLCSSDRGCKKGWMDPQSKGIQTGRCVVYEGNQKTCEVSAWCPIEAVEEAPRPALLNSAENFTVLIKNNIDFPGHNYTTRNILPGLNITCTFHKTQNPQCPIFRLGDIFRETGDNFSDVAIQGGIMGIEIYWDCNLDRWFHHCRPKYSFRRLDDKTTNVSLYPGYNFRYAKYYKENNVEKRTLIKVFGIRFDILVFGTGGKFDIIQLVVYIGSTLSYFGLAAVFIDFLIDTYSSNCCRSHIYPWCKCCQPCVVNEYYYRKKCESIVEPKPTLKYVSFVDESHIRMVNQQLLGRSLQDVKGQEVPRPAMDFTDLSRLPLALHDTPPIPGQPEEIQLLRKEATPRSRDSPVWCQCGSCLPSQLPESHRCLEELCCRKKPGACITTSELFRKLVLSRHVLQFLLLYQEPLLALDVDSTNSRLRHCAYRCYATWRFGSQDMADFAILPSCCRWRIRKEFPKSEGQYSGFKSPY
# Experiment: P2X7 pKi of Table 1
# Assay type: cell-based
# Protocol: Intracellular Calcium Flux (FLIPR) Assay
# Compound and Reagent Preparation
# Stock solutions of compounds were prepared from powders as a 10 mM DMSO stock solution. These solutions were stored at RT during the two week period of these experiments to prevent freeze-thaw of the DMSO stocks. The DMSO stocks were added to the appropriate assay buffer at a concentration of 10 μM, and then diluted serially to the final concentrations that were tested. […] The aqueous solutions of compounds as well as ATP (Sigma A7699) and BzATP (Sigma B6396) were prepared fresh for each day of experiment.
# 1321N1 cells stably expressing the full length human P2X7 gene (1321N1-hP2X7) and HEK293 cells stably expressing the full length rat P2X7 gene (HEK293-rP2X7) were obtained from the Roche Cell Culture Facility. 1321N1-hP2X7 cells were grown in Dulbecco's Modified Eagle's Medium (DMEM) high glucose supplemented with 10% FBS and 250 μg/mL G418. HEK293-rP2X7 cells were grown in DMEM/F-12 supplemented with 10% FBS, 1 mM CaCl2, 2 mM MgCl2, 2 mM L-Glutamine and 500 μg/ml G418. Cells were split such that they never became >70% confluent.
# Intracellular Calcium Flux (FLIPR)
# On the day prior to the experiment, 1321N1-hP2X7 or HEK293-rP2X7 cells were released into suspension with calcium-free PBS+Versene and washed by centrifugation with calcium-free PBS to remove the Versene. Cells were resuspended in growth medium at a density of 2.5×10^5 cells/mL and seeded into black walled, clear bottom 96 well plates (50,000 cells/well) approximately 18 hr prior to intracellular calcium flux experiments.
# On the day of the experiment, plates were washed with FLIPR buffer (calcium- and magnesium-free Hank's Balanced Salt Solution (HBSS) supplemented with 10 mM Hepes, 2.5 mM probenecid and 2 mM calcium chloride) using a BIO-TEK 96 channel plate washer and incubated with […] fluo-3 dye at 37° C. for one hr. The dye was then removed by plate washing and the cells were allowed to equilibrate for 20 min at room temperature with antagonist or vehicle (FLIPR buffer). Agonist (100 μM BzATP final concentration for hP2X7; 5 μM BzATP final concentration or rP2X7) was added online with the FLIPR and fluorescence measurements made at 1 sec intervals for 60 sec followed by 3 sec intervals for a further 4 min (5 min total). A final addition of 5 μM ionomycin was made and the maximal BzATP-evoked fluorescence normalized to the maximal ionomycin-evoked fluorescence.
row,Compound,pKi
1,"Cc1cccc(NC(=O)C2=CNC(=O)C[C@@H]2c2ccc(F)cc2)c1C [Compound 57, (R)-4-(4-Fluoro-phenyl)-6-oxo-1,4,5,6-tetrahydro-pyridine-3-carboxylic acid (2,3-dimethyl-phenyl)-amide]",7.405
2,"Cc1cccc(NC(=O)C2=CNC(=O)C[C@H]2c2ccc(F)cc2)c1C [Compound 58, (S)-4-(4-Fluoro-phenyl)-6-oxo-1,4,5,6-tetrahydro-pyridine-3-carboxylic acid (2,3-dimethyl-phenyl)-amide]",6.785
3,"Cc1cc(C)c(Br)c(NC(=O)C2=CNC(=O)C[C@@H]2c2ccc(F)cc2)c1 [Compound 59, (R)-4-(4-Fluoro-phenyl)-6-oxo-1,4,5,6-tetrahydro-pyridine-3-carboxylic acid(2-bromo-3,5-dimethyl-phenyl)-amide]",7.57
4,"Cc1cc(C)c(Br)c(NC(=O)C2=CNC(=O)C[C@H]2c2ccc(F)cc2)c1 [Compound 60, (S)-4-(4-Fluoro-phenyl)-6-oxo-1,4,5,6-tetrahydro-pyridine-3-carboxylic acid(2-bromo-3,5-dimethyl-phenyl)-amide]",6.86
5,"Cc1cc(Cl)c(OCCO)cc1NC(=O)C1=CNC(=O)CC1c1ccc(F)cc1 (stereo not shown) [Compound 61, 4-(4-Fluoro-phenyl)-6-oxo-1,4,5,6-tetrahydro-pyridine-3-carboxylic acid [4-chloro-5-(2-hydroxy-ethoxy)-2-methyl-phenyl]-amide]",7.755
6,"Cc1cc(Cl)c(OCCO)cc1NC(=O)C1=CNC(=O)CC1c1cccc(F)c1 (stereo not shown) [Compound 62, 4-(3-Fluoro-phenyl)-6-oxo-1,4,5,6-tetrahydro-pyridine-3-carboxylic acid [4-chloro-5-(2-hydroxy-ethoxy)-2-methyl-phenyl]-amide]",7.595
7,"Cc1cccc(NC(=O)C2=CNC(=O)CC2c2cccc(F)c2)c1C (stereo not shown) [Compound 63, 4-(3-Fluoro-phenyl)-6-oxo-1,4,5,6-tetrahydro-pyridine-3-carboxylic acid(2,3-dimethyl-phenyl)-amide]",7.405
8,"COc1cc(NC(=O)C2=CNC(=O)CC2c2cccc(F)c2)c(C)cc1F (stereo not shown) [Compound 64, 4-(3-Fluoro-phenyl)-6-oxo-1,4,5,6-tetrahydro-pyridine-3-carboxylic acid(4-fluoro-5-methoxy-2-methyl-phenyl)-amide]",8.17
9,"O=C1CC(c2ccc(F)cc2)C(C(=O)Nc2cc(OCCO)c(Cl)cc2Br)=CN1 (stereo not shown) [Compound 65, 4-(4-Fluoro-phenyl)-6-oxo-1,4,5,6-tetrahydro-pyridine-3-carboxylic acid[2-bromo-4-chloro-5-(2-hydroxy-ethoxy)-phenyl]-amide]",6.7
10,"O=C1CC(c2cccc(F)c2)C(C(=O)Nc2cccc3c2CCC3)=CN1 (stereo not shown) [Compound 66, 4-(3-Fluoro-phenyl)-6-oxo-1,4,5,6-tetrahydro-pyridine-3-carboxylic acid indan-4-ylamide]",6.915
11,"Cc1ccc(S(N)(=O)=O)cc1NC(=O)C1=CNC(=O)CC1c1ccc(F)cc1 (stereo not shown) [Compound 67, 4-(4-Fluoro-phenyl)-6-oxo-1,4,5,6-tetrahydro-pyridine-3-carboxylic acid(2-methyl-5-sulfamoyl-phenyl)-amide]",5.515

# Further lines, results first:
row,pKi,Compound
1,7.01,"Cc1ccc(C(C)C)cc1NC(=O)C1=CNC(=O)C[C@H]1c1cccc(F)c1 [Compound 69, (S)-4-(3-Fluoro-phenyl)-6-oxo-1,4,5,6-tetrahydro-pyridine-3-carboxylic acid(5-isopropyl-2-methyl-phenyl)-amide]"
2,7.425,"CCOc1cc(NC(=O)C2=CNC(=O)CC2c2cccc(F)c2)c(C)cc1Cl (stereo not shown) [Compound 70, 4-(3-Fluoro-phenyl)-6-oxo-1,4,5,6-tetrahydro-pyridine-3-carboxylic acid(4-chloro-5-ethoxy-2-methyl-phenyl)-amide]"
3,6.815,"Cc1cc(Cl)c(OCCO)cc1NC(=O)C1=CNC(=O)C[C@@H]1c1cccc(F)c1 [Compound 71, (R)-4-(3-Fluoro-phenyl)-6-oxo-1,4,5,6-tetrahydro-pyridine-3-carboxylic acid[4-chloro-5-(2-hydroxy-ethoxy)-2-methyl-phenyl]-amide]"
4,7.8375,"Cc1cc(Cl)c(OCCO)cc1NC(=O)C1=CNC(=O)C[C@H]1c1cccc(F)c1 [Compound 72, (S)-4-(3-Fluoro-phenyl)-6-oxo-1,4,5,6-tetrahydro-pyridine-3-carboxylic acid[4-chloro-5-(2-hydroxy-ethoxy)-2-methyl-phenyl]-amide]"
5,7.63,"Cc1cc(Cl)c(OCCO)cc1NC(=O)C1=CNC(=O)C[C@H]1c1ccc(F)cc1 [Compound 73, (S)-4-(4-Fluoro-phenyl)-6-oxo-1,4,5,6-tetrahydro-pyridine-3-carboxylic acid[4-chloro-5-(2-hydroxy-ethoxy)-2-methyl-phenyl]-amide]"
6,6.63,"Cc1cc(Cl)c(OCCO)cc1NC(=O)C1=CNC(=O)C[C@@H]1c1ccc(F)cc1 [Compound 74, (R)-4-(4-Fluoro-phenyl)-6-oxo-1,4,5,6-tetrahydro-pyridine-3-carboxylic acid[4-chloro-5-(2-hydroxy-ethoxy)-2-methyl-phenyl]-amide]"
7,6.245,"O=C1C[C@H](c2ccc(F)cc2)C(C(=O)Nc2cc(OCCO)c(Cl)cc2Br)=CN1 [Compound 75, (R)-4-(4-Fluoro-phenyl)-6-oxo-1,4,5,6-tetrahydro-pyridine-3-carboxylic acid[2-bromo-4-chloro-5-(2-hydroxy-ethoxy)-phenyl]-amide]"
8,7.063,"O=C1C[C@@H](c2ccc(F)cc2)C(C(=O)Nc2cc(OCCO)c(Cl)cc2Br)=CN1 [Compound 76, (S)-4-(4-Fluoro-phenyl)-6-oxo-1,4,5,6-tetrahydro-pyridine-3-carboxylic acid[2-bromo-4-chloro-5-(2-hydroxy-ethoxy)-phenyl]-amide]"
9,7.375,"Cc1cc(Cl)c(OCC(C)O)cc1NC(=O)C1=CNC(=O)CC1c1cccc(F)c1 (stereo not shown) [Compound 77, 4-(3-Fluoro-phenyl)-6-oxo-1,4,5,6-tetrahydro-pyridine-3-carboxylic acid[4-chloro-5-(2-hydroxy-propoxy)-2-methyl-phenyl]-amide]"
10,7.695,"O=C1C[C@@H](c2cccc(F)c2)C(C(=O)Nc2cc(OCCO)c(Cl)cc2Br)=CN1 [Compound 78, (S)-4-(3-Fluoro-phenyl)-6-oxo-1,4,5,6-tetrahydro-pyridine-3-carboxylic acid[2-bromo-4-chloro-5-(2-hydroxy-ethoxy)-phenyl]-amide]"
11,7.42,"COc1cc(C)c(NC(=O)C2=CN(CCO)C(=O)CC2c2ccc(F)cc2)cc1OC (stereo not shown) [Compound 79, 4-(4-Fluoro-phenyl)-1-(2-hydroxy-ethyl)-6-oxo-1,4,5,6-tetrahydro-pyridine-3-carboxylic acid(4,5-dimethoxy-2-methyl-phenyl)-amide]"
12,7.59,"Cc1ccc(C(C)O)cc1NC(=O)C1=CNC(=O)C[C@H]1c1ccc(F)cc1 (stereo partly drawn) [Compound 80, (S)-4-(4-Fluoro-phenyl)-6-oxo-1,4,5,6-tetrahydro-pyridine-3-carboxylic acid[5-(1-hydroxy-ethyl)-2-methyl-phenyl]-amide]"
13,5.76,"Cc1cc(Cl)c(OCC(O)CO)cc1NC(=O)C1=CNC(=O)C[C@H]1c1cccc(F)c1 (stereo partly drawn) [Compound 81, (S)-4-(3-Fluoro-phenyl)-6-oxo-1,4,5,6-tetrahydro-pyridine-3-carboxylic acid[4-chloro-5-(2,3-dihydroxy-propoxy)-2-methyl-phenyl]-amide]"
14,7.975,"COc1cc(NC(=O)C2=CNC(=O)C[C@H]2c2cccc(F)c2)c(C)cc1F [Compound 82, (S)-4-(3-Fluoro-phenyl)-6-oxo-1,4,5,6-tetrahydro-pyridine-3-carboxylic acid(4-fluoro-5-methoxy-2-methyl-phenyl)-amide]"
